# Reference: US20230026611A1, “ARYL HETEROCYCLIC COMPOUNDS AS Kv1.3 POTASSIUM SHAKER CHANNEL BLOCKERS” (D. E. Shaw Research, LLC, priority 2019, published 2023)
# Where two headings read alike, the source gives them in different places.
# Molecular target: T1, Kv1.3 potassium channel (Homo sapiens, UniProt P22001)
# T1 construct: expressed in transfected cells
# Test: Kv1.3 potassium channel blocker activity, automated whole-cell patch clamp (Patchliner) in CHO-K1 cells stably expressing Kv1.3
# Type: cell-based
# Experimental: Example 82. Evaluation of Kv1.3 potassium channel blocker activities
# This assay is used to evaluate the disclosed compounds' activities as Kv1.3 potassium channel blockers.
# CHO-K1 cells stably expressing Kv1.3 were grown in DMEM containing 10% heat-inactivated FBS, 1 mM sodium pyruvate, 2 mM L-glutamine, and G418 (500 μg/ml).
# All compounds were dissolved in DMSO at 30 mM.
# The currents were evoked by applying 100 ms depolarizing pulses from −90 mV (holding potential) to +40 mV were applied with 0.1 Hz frequency. […] 10-second breaks were used between pulse trains (see Table A below).
# Data were sampled at 10 kHz without filtering. Passive leak currents were subtracted online using a P/4 procedure (HEKA Elektronik Dr. Schulze GmbH). […] Total compound incubation time before the next pulse train was not longer than 10 seconds. Peak current inhibition was observed during compound equilibration.
# [1] = CHO-K1 cells stably expressing Kv1.3, patch clamp, current inhibition, read-out: Kv1.3 IC50
# T1 sequence (P22001 whole entry): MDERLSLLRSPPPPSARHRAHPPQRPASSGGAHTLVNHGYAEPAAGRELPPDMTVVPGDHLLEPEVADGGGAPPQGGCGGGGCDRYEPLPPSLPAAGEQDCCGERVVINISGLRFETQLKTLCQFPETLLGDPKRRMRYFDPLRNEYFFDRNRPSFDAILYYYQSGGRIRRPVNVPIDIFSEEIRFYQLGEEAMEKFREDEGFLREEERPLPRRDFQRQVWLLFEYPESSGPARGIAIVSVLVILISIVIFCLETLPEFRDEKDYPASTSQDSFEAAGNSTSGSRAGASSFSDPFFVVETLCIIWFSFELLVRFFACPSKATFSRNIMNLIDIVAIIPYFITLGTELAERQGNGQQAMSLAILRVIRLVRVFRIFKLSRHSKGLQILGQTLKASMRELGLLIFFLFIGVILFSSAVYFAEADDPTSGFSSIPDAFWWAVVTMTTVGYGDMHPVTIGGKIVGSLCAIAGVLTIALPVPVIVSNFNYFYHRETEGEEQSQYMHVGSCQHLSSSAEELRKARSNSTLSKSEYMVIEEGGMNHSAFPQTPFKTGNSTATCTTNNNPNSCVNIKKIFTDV
SMILES,IC50 [1],IC50
"Oc1cc(Cl)c(Cl)cc1[C@@H]1CCNC[C@H]1O (relative stereo) [Compound 7, (3R,4R)-rel-4-(4,5-dichloro-2-hydroxyphenyl)piperidin-3-ol]",< 10 µM,–
"NC[C@H]1CNCC[C@H]1c1cc(Cl)c(Cl)cc1O (relative stereo) [Compound 47, (3R,4S)-rel-2-[3-(aminomethyl)piperidin-4-yl]-4,5-dichlorophenol]",< 30 µM,–
"NC[C@@H]1CNCC[C@H]1c1cc(Cl)c(Cl)cc1O (relative stereo) [Compound 48, (3R,4R)-rel-2-[3-(aminomethyl)piperidin-4-yl]-4,5-dichlorophenol]",< 10 µM,–
"N[C@@H]1CNCC[C@H]1c1cc(Cl)c(Cl)cc1O (relative stereo) [Compound 49, (3R,4R)-rel-2-(3-aminopiperidin-4-yl)-4,5-dichlorophenol]",< 10 µM,–
"NC(=O)[C@H]1CNCC[C@@H]1c1cc(Cl)c(Cl)cc1O (relative stereo) [Compound 50, (3R,4S)-rel-4-(4,5-dichloro-2-hydroxyphenyl)piperidine-3-carboxamide]",< 10 µM,–
"N[C@H]1CNCC[C@H]1c1cc(Cl)c(Cl)cc1O (relative stereo) [Compound 51, (3R,4S)-rel-2-(3-aminopiperidin-4-yl)-4,5-dichlorophenol]",< 10 µM,–
"NC(=O)[C@@H]1CNC[C@H]1c1cc(Cl)c(Cl)cc1O (relative stereo) [Compound 52, (3R,4S)-rel-4-(4,5-dichloro-2-hydroxyphenyl)pyrrolidine-3-carboxamide]",< 10 µM,–
"COC(=O)[C@@H]1CNC[C@H]1c1cc(Cl)c(Cl)cc1O (relative stereo) [Compound 53, (3R,4S)-rel-methyl 4-(4,5-dichloro-2-hydroxyphenyl)pyrrolidine-3-carboxylate]",< 10 µM,–
"O=C([C@H]1C[C@H](c2c(O)ccc(Cl)c2Cl)CCN1)N1CCOCC1 (relative stereo) [Compound 76, (2R,4R)-rel-3,4-dichloro-2-[2-(morpholine-4-carbonyl)piperidin-4-yl]phenol]",< 10 µM,–
"CN(C)C(=O)[C@H]1C[C@@H](c2c(O)ccc(Cl)c2Cl)CCN1 (relative stereo) [Compound 77, (2R,4S)-rel-4-(2,3-dichloro-6-hydroxyphenyl)-N,N-dimethylpiperidine-2-carboxamide]",< 10 µM,–
"O=C([C@H]1C[C@@H](c2c(O)ccc(Cl)c2Cl)CCN1)N1CCOCC1 (relative stereo) [Compound 80, (2R,4S)-rel-3,4-dichloro-2-[2-(morpholine-4-carbonyl)piperidin-4-yl]phenol]",< 10 µM,–
"CN(C)C(=O)[C@H]1C[C@H](c2c(O)ccc(Cl)c2Cl)CCN1 (relative stereo) [Compound 82, (2R,4R)-rel-4-(2,3-dichloro-6-hydroxyphenyl)-N,N-dimethylpiperidine-2-carboxamide]",< 10 µM,–
"Nc1nnc([C@H]2C[C@@H](c3c(O)ccc(Cl)c3Cl)CCN2)o1 (relative stereo) [Compound 103, 2-((2R,4S)-rel-2-(5-amino-1,3,4-oxadiazol-2-yl)piperidin-4-yl)-3,4-dichlorophenol]",< 10 µM,–
"OC[C@H]1C[C@@H](c2cc(Cl)c(Cl)cc2O)CCN1 (single isomer, unassigned) [Compound 34]",< 10 µM,–
"OC[C@@H]1C[C@H](c2cc(Cl)c(Cl)cc2O)CCN1 (single isomer, unassigned) [Compound 35]",< 10 µM,–
"NC(=O)[C@@H]1CNCC[C@@H]1c1cc(Cl)c(Cl)cc1O (single isomer, unassigned) [Compound 56]",< 10 µM,–
"NC(=O)[C@H]1CNCC[C@H]1c1cc(Cl)c(Cl)cc1O (single isomer, unassigned) [Compound 58]",< 1 µM,–
"Oc1cc(Cl)c(Cl)cc1C1(O)CCNCC1 (single isomer, unassigned) [Compound 59, 4-(4,5-dichloro-2-hydroxyphenyl)piperidin-4-ol]",< 10 µM,–
"O=C(NC1CNC1)[C@H]1CCC(c2c(O)ccc(Cl)c2Cl)N1 (single isomer, unassigned) [Compound 117]",< 30 µM,–

SMILES,IC50 [1],IC50
"O=C(NC1CNC1)[C@@H]1CC[C@H](c2c(O)ccc(Cl)c2Cl)N1 (single isomer, unassigned) [Compound 119]",< 10 µM,–
"O=C(NC1CNC1)[C@@H]1CC[C@@H](c2c(O)ccc(Cl)c2Cl)N1 (single isomer, unassigned) [Compound 120]",< 10 µM,–
"O=C(NC1CNC1)C1CN[C@@H](c2c(O)ccc(Cl)c2Cl)C1 (single isomer, unassigned) [Compound 121]",< 1 µM,–
"O=C(NC1CNC1)[C@@H]1CN[C@H](c2c(O)ccc(Cl)c2Cl)C1 (single isomer, unassigned) [Compound 123]",< 10 µM,–
"O=C(NC1CNC1)[C@H]1CN[C@H](c2c(O)ccc(Cl)c2Cl)C1 (single isomer, unassigned) [Compound 124]",< 1 µM,–
"Oc1cc(Cl)c(Cl)cc1[C@@H]1C[C@H]2CC[C@@H](C1)N2 (single isomer, unassigned; isomer 1) [Compound 15, 2-[8-azabicyclo[3.2.1]octan-3-yl]-4,5-dichlorophenol isomer 1]",–,< 10 µM
"Oc1cc(Cl)c(Cl)cc1[C@H]1C[C@H]2CC[C@@H](C1)N2 (single isomer, unassigned; isomer 2) [Compound 11, 2-[8-azabicyclo[3.2.1]octan-3-yl]-4,5-dichlorophenol isomer 2]",–,< 10 µM
"NC(=O)C1CNC[C@H]1c1cc(Cl)c(Cl)cc1O (stereo in doubt) [Compound 64, (3R,4R)-rel-4-(4,5-dichloro-2-hydroxyphenyl)pyrrolidine-3-carboxamide]",< 10 µM,–
"CC1(c2cc(Cl)c(Cl)cc2O)CCNCC1 [Compound 1, 4,5-dichloro-2-(4-methylpiperidin-4-yl)phenol]",< 10 µM,–
"CC(=O)N1CCC(c2cc(Cl)c(Cl)cc2O)CC1 [Compound 10, 1-[4-(4,5-dichloro-2-hydroxyphenyl)piperidin-1-yl]ethan-1-one]",< 10 µM,–
"N#CC1(c2cc(Cl)c(Cl)cc2O)CCNCC1 [Compound 13, 4-(4,5-dichloro-2-hydroxyphenyl)piperidine-4-carbonitrile]",–,< 10 µM
"Oc1cc(Cl)c(Cl)cc1C1=CC2CCC(C1)N2 (stereo not shown) [Compound 17, 2-[8-azabicyclo[3.2.1]oct-2-en-3-yl]-4,5-dichlorophenol]",–,< 10 µM
"Oc1cc(Cl)c(Cl)cc1C1=CCCNC1 [Compound 19, 4,5-dichloro-2-(1,2,3,6-tetrahydropyridin-5-yl)phenol]",< 10 µM,–
"Oc1cc(Cl)c(Cl)cc1C1=CCNC1 [Compound 20, 4,5-dichloro-2-(2,5-dihydro-1H-pyrrol-3-yl)phenol]",< 10 µM,–
"Oc1cc(Cl)c(Cl)cc1C1CNC1 [Compound 22, 2-(azetidin-3-yl)-4,5-dichlorophenol]",< 10 µM,–
"OCC1(c2cc(Cl)c(Cl)cc2O)CCNCC1 [Compound 26, 4,5-dichloro-2-[4-(hydroxymethyl)piperidin-4-yl]phenol]",< 10 µM,–
"Oc1cc(C(F)(F)F)c(Cl)cc1C1CCNCC1 [Compound 29, 4-chloro-2-(piperidin-4-yl)-5-(trifluoromethyl)phenol]",< 10 µM,–
"NC1(CO)CCN(c2cc(Cl)c(Cl)cc2O)CC1 [Compound 33, 2-[4-amino-4-(hydroxymethyl)piperidin-1-yl]-4,5-dichlorophenol]",< 10 µM,–
